Assay results: US20220016080A1, “COMPOUNDS THAT SELECTIVELY AND EFFECTIVELY INHIBIT HAKAI-MEDIATED UBIQUITINATION, AS ANTI-CANCER DRUGS” (FUNDACIÓN PROFESOR NOVOA SANTOS, priority 2018, published 2022)

Key:
Assay type in all cases: cell-based
[1] = tested on: HT-29 colon tumour cell line; test: MTT cell viability assay, HT29; conditions: 72 h, analogues at 50-500 μM
Protocol: (§1) For cytotoxicity assays, 1×10^4 cells were seeded per well into a 96-well plate. After 24 h cells were treated with the indicated inhibitors for 72 h and a MTT colorimetric cell viability assay was performed following manufacturer's instructions (Sigma Aldrich, St Louis, Mo.). Absorbance was measured at 570 and 630 nm using a Multiskan Plus Reader (Nanoquant Infinite M200 Tecan Trading AG, Switzerland). Dose-response curves were designed with Graph Pad Prism Software and the half-maximal inhibitory concentration (IC50) values were calculated. Represented data are the mean±SEM of at least three independent experiments with six replicates per condition.

[2] = target: T1, E3 ubiquitin-ligase Hakai (Mus musculus, UniProt Q9JIY2); test: Hakai-dependent ubiquitination assay in 293T cells transfected with Flag-Hakai, v-Src and HA-ubiquitin; conditions: 293T cells transfected with Src, treated 36 h, DMSO as control
T1 construct: expressed in transfected cells; host or cells: HEK293T (293) cells, co-transfected with v-Src and HA-ubiquitin, and in A3 also with myc-E-cadherin
T1 sequence (Q9JIY2 1-491): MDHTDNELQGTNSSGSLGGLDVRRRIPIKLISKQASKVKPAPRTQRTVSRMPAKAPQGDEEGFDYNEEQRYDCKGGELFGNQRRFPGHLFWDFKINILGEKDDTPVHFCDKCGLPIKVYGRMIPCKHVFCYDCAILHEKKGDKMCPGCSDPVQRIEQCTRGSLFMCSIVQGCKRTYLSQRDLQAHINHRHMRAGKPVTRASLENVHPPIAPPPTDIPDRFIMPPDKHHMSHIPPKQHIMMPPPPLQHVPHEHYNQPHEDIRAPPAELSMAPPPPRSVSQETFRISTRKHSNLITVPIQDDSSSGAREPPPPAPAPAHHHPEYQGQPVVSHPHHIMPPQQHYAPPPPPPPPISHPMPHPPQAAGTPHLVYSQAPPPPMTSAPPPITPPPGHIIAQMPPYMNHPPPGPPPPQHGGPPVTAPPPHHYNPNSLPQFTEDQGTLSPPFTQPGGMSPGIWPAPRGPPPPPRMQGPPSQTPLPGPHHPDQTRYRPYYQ
Protocol: For ubiquitination assays, 750.000 HEK293T cells were seeded in 6-well cell culture plates and after 24 h were transfected with 0.25 μg Src, 0.75 μg Flag-Hakai, and 0.5 μg HA-ubiquitin with Lipofectamin 2000 (Invitrogen, UK). Six hours after transfection cells were treated with indicated concentrations of Hakin-1, Hakin-5 or the rest of the analogues tested for 36 h. Whole cell extracts were obtained in lysis buffer (20 mM Tris-HCl pH 7.5, 150 mM NaCl and 1% Triton X-100) containing 10 μg/ml leupeptin, 10 μg/ml aprotinin and 1 mM phenylmethanesulphonyl fluoride (PMSF), supplemented with 10 mM N-ethylmaleimide. Cells were harvested and subjected to western blotting using anti-HA antibody to detect ubiquitination.

LoVo cells = test: BrdU proliferation assay, LoVo; conditions: 48 h
Protocol: (§2) For BrdU assays, 1×10^4 of indicated cells were plated per well into a 96-well plate. After 24 h, cells were treated with the indicated inhibitors for 48 h. Three independent experiments were plated with six replicates per each condition. Cells were treated with […] BrdU for 2 h. BrdU incorporation into newly synthesized DNA was measured using a cell proliferation colorimetric immunoassay kit according to the manufacturer's instructions (Roche, Switzerland). Results are expressed as mean±S.D. Results are represented as percentage of positive cells (mean±S.D) of three independent experiments.

HT-29 cells [3] = test: Western blotting of EMT markers, HT-29; conditions: 48 h
Protocol: (§3) For western blot analysis, cells were treated with the indicated inhibitors for 48 h and the whole cell extracts were obtained as described previously. Twenty micrograms of lysates were resolved on a 10% polyacrilamide SDS-PAGE followed by western blot analysis performed as previously described. For immunofluorescence assays cells were grown for 24 h on glass coverslips and treated with the indicated inhibitors for 48 h. Cells were fixed with 4% PFA for 15 min, permeabilized with 0.5% […] and incubated with E-cadherin antibody for 2 h. Coverslips were incubated with fluorescein-tagged secondary antibody (Dakopatts, Sweden) for […]. Finally coverslips were mounted with ProLong Gold antifade reagent (LifeTech, UK) and images were taken in epifluorescence microscope (Olympus) using 40× objective.

[4] = tested on: Hakai-MDCK cell lines (clone 4 and clone 11); test: MTT cell viability assay, Hakai-MDCK; conditions: both clones of Hakai-MDCK compared to MDCK; 72 h
Protocol: as §1

HT-29 cells [5] = test: Immunofluorescence of E-cadherin, HT-29; conditions: 48 h
Protocol: as §3

[6] = tested on: Hakai-transformed MDCK cells; test: Phase-contrast cell phenotype, Hakai-MDCK
Protocol: MDCK, HEK293T, HepG2, MCF7 and ACHN cells were cultured in Dulbecco's Modified Eagles Medium (DMEM). MDCK stably expressing Hakai cells (Hakai-MDCK) were previously reported and were growth in DMEM with G418 (800 μg/ml). […] LoVo and PC-3 cells were cultured in F-12K Medium (Kaighn's Modification of Ham's F-12 Medium) and HT-29 cells in McCoy's 5a Medium Modified. 5637 cells were cultured in RPMI medium. All culture media were supplemented with 1% penicillin/streptomycin and 10% of heat-inactivated fetal bovine serum (FBS) at 37° C. in a humidified incubator with 5% CO2. Cells were monthly tested for mycoplasma contamination and used only for 1-3 months after defrosted. LoVo and HT29 cells were authenticated with the StemElite ID system (Promega). For phase-contrast images, culture cells were photographed with a Nikon Eclipse-TI microscope.

HT29 cells = test: BrdU proliferation assay, HT29; conditions: 48 h
Protocol: as §2

[7] = tested on: normal epithelial MDCK cell line; test: MTT cell viability assay, MDCK; conditions: normal epithelial MDCK compared to Hakai-MDCK; 72 h
Protocol: as §1

Row | ubiquitination mediated by Hakai (western blotting, anti-HA) [2] | Compound | cytotoxicity effect (cell viability, MTT) [1] | cell proliferation (BrdU) (LoVo cells) | E-cadherin levels (western blotting) (HT-29 cells [3]) | sensitivity to treatment (cell viability, MTT) [4] | E-cadherin levels at cell-cell contacts (immunofluorescence) (HT-29 cells [5]) | mesenchymal phenotype (phase contrast) [6] | cell proliferation (BrdU) (HT29 cells) | sensitivity to treatment (cell viability, MTT) [7]
1 | inhibitory effect of Hakai activity | O=C(O)c1ccc(-n2nnnc2SCC(=O)c2ccc(Cl)s2)cc1 [Hakin A-23] | important inhibitory response | – | – | – | – | – | – | –
2 | no effect was detected | CC(/C=C/C(=O)O)=C\CC(O)/C(C)=C/CCC(C)C(C)O (stereo not shown) [Hakin-5, (2E,4E,8E)-7,13-Dihydroxy-4,8,12-trimethyl-2,4,8-tetradecatrienoic acid, reference compound] | – | no effect was seen | no effect | more sensitive | no effect | induction of an epithelial phenotype | no effect was seen | more resistant
